# Entries after “also recorded” stand apart in the source; their conditions may differ.
# Columns and labels:
# [1] = tested on: oxazolone-induced ear swelling in BALB/c mice; experiment: Delayed-type hypersensitivity (DTH), oxazolone mouse ear-swelling test; format: in vivo; conditions: for inhibition of ear swelling (in words): DTH, FIG. 2, oral 50 mg/kg; for reduction of ear swelling: per os 50 mg/kg, 1 hour prior to challenge, after 48 hours
# Experimental: FIG. 2 is a graph showing the anti-inflammatory activity of Compounds 1, 2, 4, 5, 6 administered to mice orally at 50 mg/kg in a model of delayed-type hypersensitivity (DTH) (11-13 mice per group). The results for dexamethasone (10 mg/kg i.p.), a steroid positive control, are also shown. The y-axis represents difference in ear thickness in mm compared to control. The results were statistically evaluated by Student's t-test and statistical significance is indicated by one, two or three stars ([…]).
# BALB/c mice (Velaz, Prague, Czech Republic; 8 week-old; 10-15 animals per group) were sensitized by topical application of a 2% oxazolone (4-ethoxymethylene-2-phenyl-2-oxazolin-5-one; Sigma, St Louis, Mo.) solution in acetone/olive oil (4:1 vol/vol) to a shaved abdomen area (50 μl) and to each paw (5 μl)(Lange-Asschenfeldt et al., 2002). Topical oxazolone administration induces immunomodulatory activity. Five days after sensitization, right ears were challenged by topical application of 10 μl of a 1% oxazolone solution, whereas left ears were treated with vehicle alone. Test compounds were administered 1 hour prior to challenge. The extent of inflammation was measured 24 hours and 48 hours after challenge, using the mouse ear-swelling test. Animals were numbered (tail marking) and weighed and the thickness of both ears was recorded with a constant-loading dial micrometer (Mitutoyo, Tokyo). The unpaired Student t-test was used for statistical analyses. Test compounds were administered per os at 50 mg/kg as a suspension with 0.5% methylcellulose. The vehicle control group received the same volume of 0.5% methylcellulose.
# [2] = biological target: T1, VEGF binding to heparin (HS-GAG) (Homo sapiens, UniProt P15692); experiment: In vitro VEGF to HS-GAG binding assay (ELISA, heparin-BSA coated plate)
# T1 construct: purchased Research and Development Systems
# T1 sequence (P15692 27-191 isoform P15692-4): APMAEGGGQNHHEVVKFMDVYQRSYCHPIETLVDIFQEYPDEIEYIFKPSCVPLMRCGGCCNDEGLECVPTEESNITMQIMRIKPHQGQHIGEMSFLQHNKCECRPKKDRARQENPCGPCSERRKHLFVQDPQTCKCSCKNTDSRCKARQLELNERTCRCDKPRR
# From the text: An in vitro assay was used to assess the ability of test compounds of general formulas I and II to inhibit the interaction of VEGF with HS-GAGs. The assay was designed to for determine the concentration required for 50% inhibition (IC-50) for each specific compound. The test compounds were purchased from Life Chemicals Ltd. (Kiev, Ukraine), and the GAG used was heparin (heparin grade I-A; Sigma) conjugated to bovine serum albumin (Sigma) and diluted 1:200 in phosphate-buffered saline (PBS; pH 7.3). The heparin was added to a 96-well polystyrene ELISA plate (NUNC; 0.1 ml per well) and incubated overnight at 4° C. Following the incubation, the plate was washed thoroughly, by immersion, with de-ionized water and then with PBS (pH 7.3) containing Tween 20 (Sigma, 0.05%). The ELISA plate was then blocked with BSA (ICN, 3%, 200 μl per well) for 1 hour at room temperature. Following blocking, the plate was washed with de-ionized water, and then twice with PBS (pH 7.3) containing Tween 20. Recombinant human VEGF (Research and Development Systems) dissolved in PBS supplemented with BSA (0.1%) was added to the ELISA plate. The test compounds were dissolved in DMSO (MERCK), diluted in PBS and added to the wells at concentrations ranging from 0.01 to 200 μM to obtain a final volume 100 μl per well, and incubated for 60 minutes at room temperature with shaking. Following incubation, the plate was washed with de-ionized water and PBS (pH 7.3) containing Tween 20. Anti-human VEGF (1:2000; Research and Development Systems) diluted in PBS supplemented with BSA (1%) was added to the ELISA plate (100 per well) and incubated for 60 minutes at room temperature with shaking. Following incubation, the plate was washed with de-ionized water and then with PBS (pH 7.3) containing Tween 20. Streptavidin-HRP (1:200; Research and Development Systems Cat. No. DY998) diluted in PBS supplemented with BSA (1%) was added to the ELISA plate (100 per well) and incubated for 20 minutes at room temperature with shaking. The plate was then washed with de-ionized water and twice with PBS (pH 7.3) containing Tween 20. The peroxidase substrate chromogen tetramethyl benzidine (TMB; Dako) was added (100 μl per well) to the ELISA plate and incubated at room temperature. After 15 minutes, ELISA Stop Solution (hydrochloric acid 1N, sulfuric acid 3N) was added (100 μl per well) to stop the peroxidase catalyzed colorimetric reaction. The Optical Density (OD) of the samples was measured at 450 nm using an ELISA plate reader (Dynatech MR5000). Data were analyzed with Graphpad Prism software and IC-50 values were determined.
# Percent inhibition at 30 μM concentration is shown and for selected compounds IC-50 was established.
# [3] = tested on: carrageenan-induced paw edema in BALB/c mice; experiment: Carrageenan-induced paw edema; format: in vivo
# Experimental: FIG. 1 is a graph showing the anti-inflammatory activity of Compounds 1-6 administered to mice intraperitoneally (i.p.) at 20 mg/kg, 1 hour before induction of paw edema (10-12 mice per group). The swelling of paws was measured 4 hours after induction, compared to controls and expressed as difference in paw thickness in mm (y-axis). The results were statistically evaluated by Student's t-test and statistical significance is indicated by one, two or three stars ([…]).
# Acute edema was induced in the […] of BALB/c mice (10-12 mice/group) by injecting 0.02 ml of freshly prepared solution of 2% carrageenan (Sigma) under the plantar region of right hind paw (Tones et al., 2000). Carrageenan was injected 60 min after administration of the test compounds. The right paw received 0.02 ml of saline, which served as a control. The paw thickness was measured at 2, 4 and 24 hours after carrageenan challenge using a Mitutoyo engineer's micrometer. The difference between right and left pad was expressed as mean±SEM. Test compounds were injected intraperitoneally (i.p.) (20 mg/kg) in 0.5% Tween 80 in saline and vehicle control group received 0.5% Tween 80 in saline.
# Compound 1 reduced paw edema by 33% and the reduction was statistically significant as determined by Student's t-test with […].
# [4] = 20 mg/kg i.p., 60 min before carrageenan, 4 hours after induction
inhibition at 30 µM [2] [%],IC50 [2] [nM],Structure (SMILES),"reduction of paw edema [3, 4] [%]",reduction of ear swelling [1] [%],further results
,,"C[C@@H]1C[C@H]2[C@@H]3CCC4=CC(=O)C=C[C@]4(C)[C@@]3(F)[C@@H](O)C[C@]2(C)[C@@]1(O)C(=O)CO [dexamethasone, reference compound]",,,"reduction in ear swelling ([1]; dexamethasone positive control, i.p. (10 mg/kg per FIG. 2)): 46.5%"
60,,"CSc1ccc(CC(=O)Nc2sc3c(c2-c2nc4ccccc4s2)CCN(C)C3)cc1 [Compound 3, N-[3-(2-benzothiazolyl)-4,5,6,7-tetrahydro-6-methylthieno[2,3-c]pyridin-2-yl]-2-(4-methylthiophenyl)acetamide]",32.1,,
81,140,"CN1CCc2c(sc(NC(=O)c3cc4ccccc4o3)c2-c2nc3ccccc3s2)C1 [Compound 5, N-[3-(2-benzothiazolyl)-4,5,6,7-tetrahydro-6-methylthieno[2,3-c]pyridin-2-yl]-benzo[b]furan-2-carboxamide]",29.2,49.3,"inhibition of ear swelling (in words) ([1]; 50 mg/kg): significantly inhibited ear swelling; also recorded: Particularly strong response, comparable with the steroid dexamethasone"
82,220,"CCN1CCc2c(sc(NC(=O)c3ccc(C#N)cc3)c2-c2nc3ccccc3s2)C1 [Compound 1, N-[3-(2-benzothiazolyl)-4,5,6,7-tetrahydro-6-ethylthieno[2,3-c]pyridin-2-yl]-4-cyanobenzamide]",33,41.4,
65,1800,"COc1cccc(OCC(=O)Nc2sc3c(c2-c2nc4ccccc4s2)CCN(C)C3)c1 [Compound 4, N-[3-(2-benzothiazolyl)-4,5,6,7-tetrahydro-6-methylthieno[2,3-c]pyridin-2-yl]-2-(3-methoxyphenoxy)acetamide]",22.8,33.5,inhibition of ear swelling (in words) [1]: significantly inhibited ear swelling
53,1700,"CC(C)N1CCc2c(sc(NC(=O)c3ccc(N(C)C)cc3)c2-c2nc3ccccc3s2)C1 [Compound 2, N-[3-(2-benzothiazolyl)-4,5,6,7-tetrahydro-6-(1-methylethyl)thieno[2,3-c]pyridin-2-yl]-4-(dimethylamino)benzamide]",28.1,18.1,
29,,"CN1CCc2c(sc(NC(=O)CCN3C(=O)c4ccccc4C3=O)c2-c2nc3ccccc3s2)C1 [Compound 6, N-[3-(2-benzothiazolyl)-4,5,6,7-tetrahydro-6-methylthieno[2,3-c]pyridin-2-yl]-3-(1,3-dihydro-1,3-dioxo-2H-isoindole-2)propanamide]",19.5,19.1,inhibition of ear swelling (in words) [1]: significantly inhibited ear swelling
29,,"CN1CCc2c(sc(NC(=O)CN3C(=O)c4ccccc4C3=O)c2-c2nc3ccccc3s2)C1 [Compound 30, N-[3-(2-benzothiazolyl)-4,5,6,7-tetrahydro-6-methylthieno[2,3-c]pyridin-2-yl]-1,3-dihydro-1,3-dioxo-2H-isoindole-2-acetamide]",,,
73,200,"CCN1CCc2c(sc(NC(=O)c3cc(OC)c(OC)c(OC)c3)c2-c2nc3ccccc3s2)C1 [Compound 14, N-[3-(2-benzothiazolyl)-4,5,6,7-tetrahydro-6-ethylthieno[2,3-c]pyridin-2-yl]-(3,4,5-trimethoxy)benzamide]",,,
70,1700,"CN1CCc2c(sc(NC(=O)c3cccs3)c2-c2nc3ccccc3s2)C1 [Compound 7, N-[3-(2-benzothiazolyl)-4,5,6,7-tetrahydro-6-methylthieno[2,3-c]pyridin-2-yl]-2-thiophenecarboxamide]",,32.7,"reduction of paw edema ([3]; 50 mg/kg dose, separate experiment (data not shown)): 18.5%"
50,,"CCN1CCc2c(sc(NC(=O)CCS(=O)(=O)c3ccccc3)c2-c2nc3ccccc3s2)C1 [Compound 38, N-[3-(2-benzothiazolyl)-4,5,6,7-tetrahydro-6-ethylthieno[2,3-c]pyridin-2-yl]-3-(phenylsulfonyl)propanamide]",,,
50,,"O=C(Nc1sc2c(c1-c1nc3ccccc3s1)CCN(Cc1ccccc1)C2)C1COc2ccccc2O1 (centres unmarked) [Compound 33, N-[3-(2-benzothiazolyl)-4,5,6,7-tetrahydro-6-phenylmethylthieno[2,3-c]pyridin-2-yl]-2,3-dihydro-1,4-benzodioxin-2-carboxamide]",,,
77,240,COC(=O)c1ccc(C(=O)Nc2sc3c(c2-c2nc4ccccc4s2)CCN(C(C)C)C3)cc1 [Compound 20],,,
72,1300,"CCN1CCc2c(sc(NC(=O)CCSc3ccccc3)c2-c2nc3ccccc3s2)C1 [Compound 29, N-[3-(2-benzothiazolyl)-4,5,6,7-tetrahydro-6-ethylthieno[2,3-c]pyridin-2-yl]-3-(phenylthio)propanamide]",,,

# Reference: patent publication US20100298370A1, “BENZOTHIAZOLYL THIENOPYRIDINE DERIVATIVES AND USES THEREOF” (priority 2006, published 2010)
